The test system of one assay is E. coli DH10B. Put plainly: MIC50 determination and initial screening from OD600 growth curves, E. coli DH10B. It counts as cell-based, Escherichia coli. The conditions noted are these: for MIC50 / inhibition at 3300 µM: Escherichia coli, 15 h; for MIC50: E. coli DH10B; for inhibition at 3300 µM: DH10B, 3.3 mM, read-out: initial antimicrobial screening, inhibition of growth, E. coli. From the text: The antimicrobial activity of SSAs 1–14 was established against both a model Gram-positive, clinically relevant methicillin resistant Staphylococcus aureus (MRSA), and a model Gram-negative, E. coli bacteria, Table 1. Here MIC50 values are given in mM to enable the derivation of molecular structure: antimicrobial efficacy: physical property relationships. […]
Data were acquired in endpoint mode. […]
Section 3: Microbial Methods
These methods were taken directly from UK Health and Security Office (UKHSA) standard operating […]
Preparation of Luria Broth media (LB): Yeast extract (5 g), tryptone (10 g) and sodium chloride (10 g) were dissolved in dH₂O (1 L) then divided into bottles and autoclaved.
Preparation of Luria Broth (LB) agar plates: Agar (6 g) was added to LB (400 mL) and autoclaved. Once cool, the LB agar was poured into sterile petri dishes under sterile conditions and allowed to set. LB plates were stored at 4 °C until use.
Preparation of bacterial plates: Sterile LB agar plates were streaked using Escherichia coli DH10B or USA300 Methicillin-Resistant Staphylococcus aureus then incubated at 37 °C overnight.
Preparation of Inoculum: An initial culture was made up by inoculating LB media (5 mL) with a single colony of bacteria under sterile conditions and incubated at 37 °C with shaking overnight. The following day, overnight bacterial cultures were subcultured into fresh LB medium to a starting OD600 […]
Preparation of 96 well microplate for screening: 20 mM solutions of each compound to be tested were made up using 5 % ethanol. The 1:100 cell suspension (150 µL) was pipetted into the wells and SSA compound solutions (30 µL) were added into each well. The final screening concentration for each compound was 3.3 mM in the well. These were incubated for 20 hours in a plate reader, with optical density readings being taken at 600 nm every 15 minutes. Optical density readings were plotted against time to produce growth curves. […]
individual wells under sterile conditions. Compounds (30 µL) were added to the wells to equal a total volume of 180 µL in the wells. Six repeats of each concentration for each compound were created each plate. The plates were sealed using parafilm, then incubated at 37°C in a microplate reader for 18-25 hours. Optical density readings were taken at 600 nm every 15 min. Data was used to generate […]
Calculation of MIC50: Growth curves were plotted using OD600 optical density readings in Microsoft ® Excel ® 2013. OD600 optical density readings 900 minutes from the start of each of these growth cultures for each concentration of compound were plotted in Origin ® 2015. The resultant curve was normalized and fitted using the Boltzmann fit to define the MIC50 values for each compound.

The test system of a further assay is PE:PG mix nanodiscs. Put plainly: Phospholipid nanodisc 1H NMR CPMG coordination assay, PE:PG mix nanodiscs. The note with it: SSA 100 µM. The format is binding. From the text: (§1) Finally, to establish how any single SSA structural variation affects the coordination of an individual salt component to the surface of a phospholipid membrane, the binding of the anionic and cationic components of SSAs 5–12 with nanodiscs comprised of PC, PG or the PE : PG mix (Table 2) was studied. Nanodiscs were synthesised from synthetic vesicles of the relevant phospholipid composition. For full synthetic procedures and nanodisc characterisation please see ESI (Section 13). ^†[34,35]
(§2) Styrene-maleic acid (SMA) nanodiscs are small biomimetic scaffolds with a hydrodynamic diameter ≈ 10 nm. They consist of a single disc-shaped planar phospholipid bilayer, ‘belted’ in this instance with a synthetic SMA co-polymer. Here nanodiscs of a specific phospholipid composition were titrated against a solution of SSAs 5–12 (0.10 mM) in a sodium phosphate buffer (20 mM) with NaCl (20 mM) at pH 7.4. This solution was supplemented with 5% D2O, to enable NMR locking and 4,4-dimethyl4-silapentane-1-sulfonic acid (DSS – 0.02 mM) to act as an internal standard. The nanodiscs were then titrated against the SSA, while the SSA concentration was maintained as constant, well below the CMC (Table 3).[38] A 1D ^1H NMR with a Carr–Purcell–Meiboom–Gill sequence (CPMG) filter (300 ms),[36,48] modified with a watergate element was then obtained for each experimental data point. The watergate element was used to allow suppression of the water signal, whereas the CPMG filter enabled the suppression of those resonances from molecular species with long correlation times, which in this instance correlate to the signals of those SSAs coordinated to the nanodisc, rather than those which exist as free species in solution. Comparative integration of the resonances corresponding to the SSA cation or anion, standardised against the DSS internal standard, permits the percentage of the individual SSA components coordinated to the phospholipid nanodisc to be established with respect to increasing nanodisc concentration.
(§3) However, when considering the 1/EC50 for the SSA cationic component (Fig. 10b), the reverse is true. This is perhaps expected, but nevertheless despite the identical experimental conditions, including the same TBA counter cation across SSAs 5–12, there is a marked difference in the 1/EC50 obtained, where the only difference is the SSA anion present. This is most noticeable for the series of SSA titrations involving the PE : PG mix (Table 2) nanodiscs. The only variation within this set of titrations is the structure of the SSA anion; we therefore conclude that the SSA anion is influencing SSA cation nanodisc coordination events. This observation provides evidence for the presence of further complex interactions informing SSA:nanodisc coordination processes. […]
(§4) Data were acquired in endpoint mode. All experiments were repeated in triplicate […]
(§5) Nanodisc preparation: Lipid films were resuspended in Buffer (20 mM NaCl, 20 mM NaH 2PO4, pH 7.4) and sonicated for 1 hour, at a 5:1 ratio, SMA was added and incubated at 37 °C for 1 hour. Dialysed overnight in 5 L of the same buffer in 10 KDa cut-off dialysis tubing, concentrated, and underwent gel filtration size exclusion chromatography on a Superdex 200 10/300 GL column (GE Healthcare) in the same buffer, whilst monitoring absorbance at 260 nm. Nanodisc quantification carried out via monitoring of absorbance at 260 nm using a calibration curve.2
(§6) 1H NMR CPMG: 1H NMR CPMG3,4 spectra were obtained with a Bruker Avance III […] spectrometer equipped with a TCIP cryoprobe at 298 K. Samples were supplemented with 5 % D 2O and 0.02 mM 4,4-dimethyl4-silapentane-1-sulfonic acid (DSS). The standard zgprcpmg pulse sequence from the Bruker library was modified with a watergate element to allow suppressi on of the water signal and was used for all experiments. Although this sequence is readily obtainable, we are happy to provide it on request. The P1 pulses were 9 µs at a power of 7.9 W. Presaturation was applied between […]

Another assay concerns PC nanodiscs. The assay is described as follows: Phospholipid nanodisc 1H NMR CPMG coordination assay, PC nanodiscs. The format is binding. The note with it: SSA 100 µM.
From the text: as §1, §2, §3, §4, §5, §6

[1] abbreviates: Table S3, conversion of the mM values of Table 1, after 900 mins.
[2] abbreviates: concentration of nanodisc coordinating 50 % of the SSA anion, Hill Plot fit, Vmax fixed 100 %, read-out: EC50 PE:PG mix, anionic SSA component.
Where [3] appears, read: concentration of nanodisc coordinating 50 % of the SSA cation, Hill Plot fit, Vmax fixed 100 %, read-out: EC50 PE:PG mix, cationic SSA component.
Setting [4] is: concentration of nanodisc coordinating 50 % of the SSA anion, Hill Plot fit, Vmax fixed 100 %, read-out: EC50 PC, anionic SSA component.
The mark [5] stands for this setting: n = 3, 0.5 McFarland standard, after 900 min, number in bracket = efficacy rank.
Where [6] appears, read: experimental endpoint 4.00 µM nanodisc, read-out: EC50 PC, cationic SSA component.

What is called MIC50 is an inhibitory concentration at the 50% level, which refers to growth in some studies and to a panel of isolates in others. Higher therefore signals lower susceptibility. The EC50 is the midpoint of the concentration-response curve. The term inhibition denotes the drop in the measured response relative to a control, in per cent.

Each structure is given as a SMILES string. Like-named read-outs stand apart in the source and are kept apart here.

With `O=C(NCS(=O)(=O)O)Nc1ccc(C(F)(F)F)cc1` [SSA 1], the MIC50 in the assay on E. coli DH10B (setting [1]) is 2080 µg/mL.

`O=C(NCCCS(=O)(=O)O)Nc1ccc(C(F)(F)F)cc1` [SSA 2] gave an MIC50 in the assay with E. coli DH10B (setting [1]) of 840 µg/mL.

`O=C(O)CNC(=O)Nc1ccc(C(F)(F)F)cc1` [SSA 4] displayed an MIC50 with E. coli DH10B (setting [1]) of 630 µg/mL.

In the assay with E. coli DH10B (setting [1]), `O=C(NCS(=O)(=O)O)Nc1ccccc1-c1nc2ccccc2s1` [SSA 5] showed an MIC50 of 2160 µg/mL. Also, the EC50 worked out at 1140 nM in the assay on PE:PG mix nanodiscs (setting [2]) and 930 nM in the assay on PE:PG mix nanodiscs (setting [3]).

`Cc1ccc2nc(-c3ccc(NC(=O)NCS(=O)(=O)O)cc3)sc2c1` [SSA 6]: the MIC50 against E. coli DH10B (setting [1]) was 3110 µg/mL. Moreover, the EC50 with PC nanodiscs (setting [4]) is 360 nM; in the assay on PE:PG mix nanodiscs (experimental endpoint 4.00 µM nanodisc, read-out: EC50 PE:PG mix, cationic SSA component) it was over 4000 nM; in the assay with PE:PG mix nanodiscs (setting [2]), 460 nM.

As for `Cc1ccc2nc(NC(=O)NCS(=O)(=O)O)sc2c1` [SSA 7], the inhibition at 3300 µM in the assay with E. coli DH10B (after 900 min) is under 10%. For the same molecule, the “initial antimicrobial screening outcome, E. coli” value in the assay with E. coli DH10B (Table S3, screening at 3.3 mM) was “Fail”. Besides, the EC50 with PE:PG mix nanodiscs (setting [3]) stood at 3440 nM.

Turning to `O=C(NCS(=O)(=O)O)Nc1ccc(-c2nc3ccccc3s2)cc1` [SSA 8], the values for the MIC50 against E. coli DH10B (setting [5]) and in the assay with E. coli DH10B (setting [1]) were 3660 µM and 2210 µg/mL, respectively. In addition, the results for the EC50 with PC nanodiscs (setting [4]) and in the assay with PE:PG mix nanodiscs (setting [2]) were 2660 nM and 2200 nM, respectively.

For `Cc1ccc2nc(-c3ccc(NC(=O)NCCC(=O)O)cc3)sc2c1` [SSA 9], the MIC50 against E. coli DH10B (setting [5]) worked out at 2160 µM; in the assay with E. coli DH10B (setting [1]), 1370 µg/mL. Further, the half-maximal effective concentration (EC50) with PC nanodiscs (setting [6]) is over 4000 nM; with PC nanodiscs (setting [4]), 270 nM; with PE:PG mix nanodiscs (setting [2]) it was 730 nM.

Consider `Cc1ccc2nc(-c3ccc(NC(=O)NCCCS(=O)(=O)O)cc3)sc2c1` [SSA 10], for which the MIC50 against E. coli DH10B (setting [5]) is 1160 µM; in the assay on E. coli DH10B (setting [1]), 750 µg/mL. For the same molecule, the 50% effective concentration (EC50) was over 4000 nM in the assay with PC nanodiscs (setting [6]), 360 nM in the assay on PC nanodiscs (setting [4]), 500 nM in the assay on PE:PG mix nanodiscs (setting [2]) and 2920 nM in the assay on PE:PG mix nanodiscs (setting [3]).

In the case of `Cc1ccc2nc(-c3ccc(NC(=O)NCC(=O)O)cc3)sc2c1` [SSA 11], the half-maximal effective concentration (EC50) with PC nanodiscs (setting [4]) turned out to be 490 nM; in the assay on PE:PG mix nanodiscs (setting [2]), 720 nM; in the assay on PE:PG mix nanodiscs (setting [3]), 2510 nM.

As for `Cc1ccc2nc(-c3ccc(NC(=S)NCS(=O)(=O)O)cc3)sc2c1` [SSA 12], in the assay on E. coli DH10B (after 900 min), the inhibition at 3300 µM is under 10%. In addition, the concentration for a half-maximal effect (EC50) worked out at 140 nM in the assay on PC nanodiscs (setting [4]); 2240 nM with PC nanodiscs (concentration of nanodisc coordinating 50 % of the SSA cation, Hill Plot fit, Vmax fixed 100 %, read-out: EC50 PC, cationic SSA component); 260 nM in the assay with PE:PG mix nanodiscs (setting [2]); 370 nM in the assay with PE:PG mix nanodiscs (setting [3]).
